Assay results: patent US6796312B2, “Process and apparatus for the removal of toxic components of tobacco smoke and the standardization of the health hazards related to those components” (priority 2001, dated 2004)

What was measured:
myeloperoxidase = biological target: T1, myeloperoxidase (Homo sapiens, UniProt P05164); assay: NADH2-NDGA-myeloperoxidase spectrophotometric assay of sputum / oral fluid-cell harvest supernatant extracts; format: biochemical
T1 construct: Homogenates were centrifuged at 1,300×g for ten (10) minutes and the supernatant extracts were kept during the course of analysis; from tissue; host or cells: human sputum / oral fluid-cell harvest (neutrophil-rich) homogenate supernatants
T1 sequence (P05164 49-745): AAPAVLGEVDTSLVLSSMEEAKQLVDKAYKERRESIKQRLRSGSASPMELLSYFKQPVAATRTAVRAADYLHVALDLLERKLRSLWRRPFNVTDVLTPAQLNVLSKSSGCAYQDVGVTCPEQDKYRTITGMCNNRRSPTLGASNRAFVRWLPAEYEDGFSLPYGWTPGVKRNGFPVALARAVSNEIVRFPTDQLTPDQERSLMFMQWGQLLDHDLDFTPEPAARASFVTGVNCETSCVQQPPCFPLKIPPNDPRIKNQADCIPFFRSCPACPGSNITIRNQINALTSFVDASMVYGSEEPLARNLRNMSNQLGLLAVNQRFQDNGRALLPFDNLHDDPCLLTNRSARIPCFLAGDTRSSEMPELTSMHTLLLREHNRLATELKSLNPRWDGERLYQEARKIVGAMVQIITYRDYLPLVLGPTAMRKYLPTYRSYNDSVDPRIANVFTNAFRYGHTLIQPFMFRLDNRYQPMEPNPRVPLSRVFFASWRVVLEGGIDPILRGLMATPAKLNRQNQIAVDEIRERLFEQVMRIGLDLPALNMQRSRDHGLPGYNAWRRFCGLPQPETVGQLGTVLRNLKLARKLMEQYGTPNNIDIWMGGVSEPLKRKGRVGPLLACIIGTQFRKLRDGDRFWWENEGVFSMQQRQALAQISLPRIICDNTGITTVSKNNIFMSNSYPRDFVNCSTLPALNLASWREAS
Description: Aliquots of fresh human oral fluid-cell harvests as exemplified above or fresh human sputum collected by the donors over a twenty-four (24) hour period were disrupted employing either Ten Broeck glass homogenizers or the Virtis homogenizer. Homogenates were centrifuged at 1,300×g for ten (10) minutes and the supernatant extracts were kept during the course of analysis at zero degrees centigrade (0° C.). Other reactants were incubated at thirty-five degrees centigrade (35° C.). Reduced nicotinamide-adenine dinucleotide oxidase and norhydroguaiaretic acid-myeloperoxidase activities were followed at 340 mμ or (nm) employing the Beckman Model DU Spectrophotometer temperature regulated at thirty-five degrees centigrade (35° C.). All specific reactions were run as duplicate assays.
Although this oxidation was very small under the conditions of experiment, an interaction correction factor was determined and applied to all reduced nicotinamide-adenine dinucleotide-nordihydroguaiaretic acid-mycloperoxidase assay reactions.
The velocity constants for the myeloperoxidase reactions behaved and were computed in accord with zero order reaction kinetics. […] In most instances, the activities followed first order reaction kinetics for a short interval and then ceased abruptly. The latter may be due to the presence or accumulation of variable concentrations of an unidentified inhibitor or inhibitors in the supernatants. Since in all cases the oxidase activities were very slow relative to the myeloperoxidase activities, the difference in optical density over the course of the reactions (up to ten (10) minutes) for the oxidase system were computed in the same manner as the data for the rapid myeloperoxidase system. Thus, all velocity constants were expressed in μ Moles of reduced nicotinamide-adenine dinucleotide oxidized per minute per ml. of oral fluid-cell harvest or sputum. The small oxidase activities were applied as a correction factor in the computation of all myeloperoxidase velocity constants.
The pH optimum of the myeloperoxidase system was determined. When fresh nordihydroguaiaretic acid solutions were prepared and interaction rates with reduced nicotinamide-adenine dinucleotide were subtracted as controls from oral lavage and sputum supernatant myeloperoxidase activities, the net velocity constants were zero (0). On the other hand, five (5) hour old nordihydroguaiaretic acid solutions yielded optimal activities at approximately pH 7.4. Subsequent experiments uniformly were carried out at pH 7.0 using five (5) hour old solutions to minimize the rates of the auto oxidation of nordihydroguaiaretic acid and oxidation of reduced nicotinamide-adenine dinucleotide by nordihydroguaiaretic acid when employing alkaline pH's.

[1] = tested on: succinic oxidase and reduced nicotinamide-adenine dinucleotide oxidase; assay: Respiratory chain of mouse heart homogenates; format: biochemical; conditions: under certain conditions, Eichel unpublished

**Q.** What does the source list for CC(Cc1ccc(O)c(O)c1)C(C)Cc1ccc(O)c(O)c1 (stereo not drawn) [NDGA, beta, gamma-dimethyl-alpha, ortho-bis (3,4 dihydroxiphenyl) butane]?
**A.** NADH2-NDGA-MPO velocity constant (myeloperoxidase; NDGA solution aged 0 minutes): 0.00 μ Moles NADH2 oxidized per minute per ml. of sputum supernatant; NADH2-NDGA-MPO velocity constant (myeloperoxidase; NDGA solution aged 60 minutes): 8.97 μ Moles NADH2 oxidized per minute per ml. of sputum supernatant; NADH2-NDGA-MPO velocity constant (myeloperoxidase; NDGA solution aged 120 minutes): 14.43 μ Moles NADH2 oxidized per minute per ml. of sputum supernatant; NADH2-NDGA-MPO velocity constant (myeloperoxidase; NDGA solution aged 180 minutes): 27.65 μ Moles NADH2 oxidized per minute per ml. of sputum supernatant; NADH2-NDGA-MPO velocity constant (myeloperoxidase; NDGA solution aged 240 minutes): 28.89 μ Moles NADH2 oxidized per minute per ml. of sputum supernatant; NADH2-NDGA-MPO velocity constant (myeloperoxidase; NDGA solution aged 337 minutes): 32.40 μ Moles NADH2 oxidized per minute per ml. of sputum supernatant; NADH2-NDGA-MPO velocity constant (myeloperoxidase; NDGA solution aged 397 minutes): 41.39 μ Moles NADH2 oxidized per minute per ml. of sputum supernatant; NADH2-NDGA-MPO velocity constant (myeloperoxidase; NDGA solution aged 440 minutes): 44.21 μ Moles NADH2 oxidized per minute per ml. of sputum supernatant; NADH2-NDGA-MPO velocity constant (myeloperoxidase; NDGA solution aged 485 minutes): 46.85 μ Moles NADH2 oxidized per minute per ml. of sputum supernatant; inhibition of the respiratory chain (succinic oxidase, reduced nicotinamide-adenine dinucleotide oxidase) [1]: effective inhibitor
